Laboratory results from US11612627B2, “Method for preventing or treating thrombosis” (ANDONG NATIONAL UNIVERSITY INDUSTRY-ACADEMIC COOPERATION …, priority 2020, dated 2023).
Several values for one entry are separate records, joined by “and”; a condition that tells them apart may be missing. Identical values can stand only once.

Legend:
[1] = system: prothrombin; experiment: Prothrombin time (plasma clotting); type: biochemical; conditions: clot time sample/clot time DMSO, 3-carene section Table 3
Description: In an Amelung coagulometer KC-1A tube (Japan), 70 μl of standard plasma (MD Pacific Co., China) was heated, together with 10 μl of each of samples having various concentrations, at 37° C. for 3 min before adding 130 μl of PT reagent thereto. […] This experiment was repeated three times independently. The prothrombin time was expressed as a mean value of the three measurements.

[2] = system: coagulation factors; experiment: aPTT (activated partial thromboplastin time); type: biochemical; conditions: clot time sample/clot time DMSO, 3-carene section Table 3
Description: Subsequently, 50 μl of CaCl2 (35 mM) was added. […] Instead of samples, DMSO served as a solvent control. […] The aPPT was expressed as a mean value of the measurements of three independent experiments.
Instead of samples, DMSO served as a solvent control. […] The aPPT was expressed as a mean value of the measurements of three independent experiments.

[3] = system: human erythrocytes; experiment: Human erythrocyte lysis (hemolysis) activity; type: cell-based
Description: In this regard, erythrocyte lysis activity was assayed as reported previously (Sohn, Ho-Yong, 2014. Korean J. Microbiol. Biotechnol. 42: 285-292). Briefly, 100 μl of human erythrocytes, after being washed three times with PBS, was added to each well of 96-well microplates, mixed with 100 μl of each of samples having various concentrations, and incubated at 37° C. for 30 min. Subsequently, the reaction mixture was centrifuged for 10 min (1,500 rpm). After 100 μl of the supernatant was transferred to new microtiter plates, absorbance was read at 414 nm to analyze hemoglobin release according to hemolysis. DMSO (2%) was used as a solvent control for the samples while Triton X-100 (1 mg/ml) served as a control for hemolysis. Hemolysis activity was calculated according to the following equation: (%)Hemolysis=[(Abs. S−Abs. C)/(Abs. T−Abs. C)]×100
Abs. S: Absorbance of sample
Abs. C: Absorbance of DMSO
Abs. T: Absorbance of Triton X-100 added control

[4] = miscible with oil; cited from earlier work
[5] = system: Human enriched platelets; experiment: Platelet aggregation inhibition activity (collagen, whole-blood aggregometer); type: cell-based; conditions: for Platelet Aggregation Activity: AUC sample/AUC DMSO x 100; for Platelet Aggregation Curve: Amplitude / Platelet Aggregation Curve: Area under curve / Platelet Aggregation Curve: Lag time / Platelet Aggregation Curve: Slope: collagen-induced
Description: Platelet Aggregation Inhibition Activity Human enriched platelets were used. They were washed once with a washing buffer (138 mM NaCl, 2.7 mM KCl, 12 mM NaHCO3, 0.36 mM NaH2PO4, 5.5 mM Glucose, 1 mM EDTA, pH 6.5) and then resuspended in a suspending buffer (138 mM NaCl, 2.7 mM KCl, 12 mM NaHCO3, 0.36 mM NaH2PO4, 5.5 mM Glucose, 0.49 mM MgCl2, 0.25% gelatin, pH 7.4). Centrifugation at 3,000 rpm for 10 min was followed by resuspension in a suspending buffer, with the platelets adjusted to the density of 4×10^9/ml. Subsequently, 1 ml of the suspension was incubated with 2.5 μl of collagen for 5 min, after which platelet aggregation was measured at 37° C. using a whole-blood aggregometer (Chrono-log, USA).

O=C(O)c1ccc(O)cc1 [4-Hydroxybenzoic acid, 4-hydroxybenzoic acid]
Blood coagulation inhibition activity: Prothrombin Time ([1]; 0.5 mg/ml): 0.99 ± 0.00
Blood coagulation inhibition activity: aPTT ([2]; 0.5 mg/ml): 0.94 ± 0.15

C[C@@H]1[C@H](O)[C@@H](C)/C=C/C=C/C=C/C=C/C=C/C=C/C=C/[C@H](O[C@@H]2O[C@H](C)[C@@H](O)[C@H](N)[C@@H]2O)C[C@@H]2O[C@](O)(C[C@@H](O)C[C@@H](O)[C@H](O)CC[C@@H](O)C[C@@H](O)CC(=O)O[C@H]1C)C[C@H](O)[C@H]2C(=O)O [Amphotericin B, amphotericin B]
Human hemolytic activity ([3]; 0.003 mg/ml, flower section Table 3): 26.5 ± 9.6%
Human hemolytic activity ([3]; 0.006 mg/ml, flower section Table 3): 38.0 ± 0.7%
Human hemolytic activity ([3]; 0.00625 mg/ml, flower section Table 6): 38.0 ± 0.7%
Human hemolytic activity ([3]; 0.0125 mg/ml, flower section Table 6): 48.2 ± 5.9%
Human hemolytic activity ([3]; 0.0125 mg/ml, leaf section Table 4): 48.2 ± 5.9%
Human hemolytic activity ([3]; 0.025 mg/ml, flower section Table 3): 59.5 ± 6.3%
Human hemolytic activity ([3]; 0.025 mg/ml, flower section Table 3, listed as amphotericin B): ≥ 50%
Human hemolytic activity ([3]; 0.025 mg/ml, flower section Table 6): 59.5 ± 6.3%
Human hemolytic activity ([3]; 0.025 mg/ml, leaf section Table 4): 59.5 ± 6.3%
Human hemolytic activity ([3]; 0.025 mg/ml, leaf section Table 4, listed as amphotericin B): ≥ 50%
Human hemolytic activity ([3]; 0.05 mg/ml, flower section Table 3): 80.7 ± 7.3%
Human hemolytic activity ([3]; 0.05 mg/ml, flower section Table 6): 80.7 ± 7.3%
Human hemolytic activity ([3]; 0.05 mg/ml, leaf section Table 4): 80.7 ± 7.3%
Human hemolytic activity ([3]; 0.1 mg/ml, flower section Table 3): 95.8 ± 0.3%
Human hemolytic activity ([3]; 0.1 mg/ml, flower section Table 6): 95.8 ± 0.3%
Human hemolytic activity ([3]; 0.1 mg/ml, leaf section Table 4): 95.8 ± 0.3%

CC1=CCC2C(C1)C2(C)C (stereo not shown) [Extract 3-Carene, 3-carene]
Blood coagulation inhibition activity: Prothrombin Time ([1]; 0.5 mg/ml): 1.05 ± 0.02
Blood coagulation inhibition activity: Prothrombin Time ([1]; 0.75 mg/ml): 1.29 ± 0.00
Blood coagulation inhibition activity: Prothrombin Time ([1]; 1.0 mg/ml): 1.43 ± 0.09
Blood coagulation inhibition activity: Prothrombin Time ([1]; 1.0 mg/ml, listed as 3-carene): 1.43
Blood coagulation inhibition activity: aPTT ([2]; 0.5 mg/ml): 1.23 ± 0.05
Blood coagulation inhibition activity: aPTT ([2]; 0.75 mg/ml): 1.61 ± 0.03
Blood coagulation inhibition activity: aPTT ([2]; 1.0 mg/ml): 2.26 ± 0.08
Blood coagulation inhibition activity: aPTT ([2]; 1.0 mg/ml, listed as 3-carene): 2.26
Solubility in water [4]: not soluble in water

CC(=O)Oc1ccccc1C(=O)O [Aspirin, aspirin]
Platelet Aggregation Activity ([5]; 0.125 mg/ml): 82.2%
Platelet Aggregation Curve: Amplitude ([5]; 0.125 mg/ml): 14 ohm
Platelet Aggregation Curve: Area under curve ([5]; 0.125 mg/ml): 78.0
Platelet Aggregation Curve: Lag time ([5]; 0.125 mg/ml): 35 s
Platelet Aggregation Curve: Slope ([5]; 0.125 mg/ml): 2
Platelet Aggregation Activity ([5]; 0.25 mg/ml): 49.7%
Platelet Aggregation Curve: Amplitude ([5]; 0.25 mg/ml): 8 ohm
Platelet Aggregation Curve: Area under curve ([5]; 0.25 mg/ml): 47.2
Platelet Aggregation Curve: Lag time ([5]; 0.25 mg/ml): 128 s
Platelet Aggregation Curve: Slope ([5]; 0.25 mg/ml): 1

Triton X-100
Human hemolytic activity ([3]; 1.0 mg/ml, 37° C. 30 min, leaf section Table 4): 100% and 100.0 ± 0.1%
Human hemolytic activity ([3]; 1.0 mg/ml, flower section Table 3): 100% and 100.6 ± 0.8%
Human hemolytic activity ([3]; 1.0 mg/ml, flower section Table 6): 100.6 ± 0.8%
